# Results taken from patent US12187700B2, “Polymorphs and cocrystals of a cardiac troponin activator” (Amgen Inc., priority 2019, dated 2025).
# Where a name gives a salt, the structure may show the parent alone.
# Tests used:
# Assay type in all cases: physicochemical
# [1] = Static storage stability of cocrystals and amorphous form by XRPD
# [2] = Moisture sorption (dynamic vapor sorption, hygroscopicity 0 to 95% RH); conditions: for hygroscopicity: DVS, 0 to 95% RH
# Method: Moisture Sorption Moisture sorption data was collected using a dynamic vapor sorption (DVS) analyzer. A sample size of approximately 5-10 mg was used in a quartz pan. Hygroscopicity was evaluated from 0 to 95% RH in increments of 5 or 10% RH. Data for adsorption and desorption cycles were collected. Equilibrium criteria were set at 0.002% weight change in 5 minute with a maximum equilibration time of 120 minutes.
# [3] = Solid stability of drug substance (chemical by UPLC; physical by XRPD, DSC, TGA); conditions: stored at 25° C./60% RH, 40° C./75% RH, 40° C./ambient or 60° C./ambient conditions
# Method: Solid Stability Drug substance was stored at 25 C/60% RH, 40 C/75% RH, 40 C/ambient or 60 C/ambient conditions. Chemical stability was determined at each timepoint by dissolving the drug substance in 50% acetonitrile water for UPLC analysis. Physical stability was determined by analyzing the solid by XRPD, DSC and TGA.
# [4] = Solubility in water (excess solid dispersed at least 24 hours at room temperature, UPLC-UV)
# Method: Water: An excess of solid was added to water to produce a suspension and dispersed for at least 24 hours at room temperature. Suspensions were filtered. Filtrate was analyzed by UPLC-UV and compared against a standard curve to determine the solution concentration of the crystal form. Solids were analyzed by XRPD to determine the crystal form.
# [5] = Physical form stability (dehydration of the monohydrate); conditions: under vacuum at ambient temperature, at temperatures greater than 25° C. or at low humidity
compound,measurement,setting,value
CS(=O)(=O)c1cncc(C(=O)N2[C@@H](C(=O)N[C@@H](c3cc(F)c(C(F)(F)F)cc3F)C3CC3)C[C@H]3C[C@H]32)c1 [Glycerol cocrystal],storage stability by XRPD,[1]; 40° C./75% RH storage 7 d,Stable
CS(=O)(=O)c1cncc(C(=O)N2[C@@H](C(=O)N[C@@H](c3cc(F)c(C(F)(F)F)cc3F)C3CC3)C[C@H]3C[C@H]32)c1 [Hydrochloride Salt Form],hygroscopicity,[2],hygroscopic
same,salt stability upon exposure to water,[2]; exposure to water during moisture sorption experiments or slurry in water,disproportionates to Free Form
CS(=O)(=O)c1cncc(C(=O)N2[C@@H](C(=O)N[C@@H](c3cc(F)c(C(F)(F)F)cc3F)C3CC3)C[C@H]3C[C@H]32)c1 [Urea cocrystal],storage stability by XRPD,[1]; 25° C./97% RH storage 7 d,Stable
CS(=O)(=O)c1cncc(C(=O)N2[C@@H](C(=O)N[C@@H](c3cc(F)c(C(F)(F)F)cc3F)C3CC3)C[C@H]3C[C@H]32)c1 [Form I],time physically and chemically stable on storage,[3],14 weeks
same,solubility,[4]; thermodynamic from solid,0.013 mg/mL
same,hygroscopicity,[2],non-hygroscopic
CS(=O)(=O)c1cncc(C(=O)N2[C@@H](C(=O)N[C@@H](c3cc(F)c(C(F)(F)F)cc3F)C3CC3)C[C@H]3C[C@H]32)c1 [Form III],stability of the monohydrate (dehydration),[5],dehydrates
CS(=O)(=O)c1cncc(C(=O)N2[C@@H](C(=O)N[C@@H](c3cc(F)c(C(F)(F)F)cc3F)C3CC3)C[C@H]3C[C@H]32)c1 [Amorphous Form],time to crystallization upon static storage,[1]; static storage at 80° C./0% RH or 40° C./75% RH,≤ 1 week
CS(=O)(=O)c1cncc(C(=O)N2[C@@H](C(=O)N[C@@H](c3cc(F)c(C(F)(F)F)cc3F)C3CC3)C[C@H]3C[C@H]32)c1 [Form IV],time physically and chemically stable on storage,[3],13 weeks
same,solubility in water,[4],0.010 mg/mL
same,hygroscopicity,[2],non-hygroscopic
